Measurements taken from patent US20230085307A1, “PYRIDAZINONE COMPOUND AND HERBICIDE” (NISSAN CHEMICAL CORPORATION, priority 2019, published 2023).

Legend:
redroot pigweed [1] = experiment: Test Example 4: herbicidal effect by soil treatment (Table 19, symbol N); type: in vivo, redroot pigweed (Amaranthus retroflexus); conditions: amount of applied herbicide 320 g/ha
Outline: (§1)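 Applied as a water-diluted emulsion, the compound was sprayed onto soil covering newly sown seeds. Evaluation came three weeks after application, in a greenhouse held at 25° C. to 30° C.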

rice flat sedge = experiment: Test Example 3: herbicidal effect by foliage application, Wagner pot (Table 18, symbol E); type: in vivo, rice flat sedge (Cyperus iria); conditions: amount of applied herbicide 320 g/ha
Outline: (§2)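 Plants were sown in alluvial soil held under 0.1–0.5 cm standing water and grown 14 days in a greenhouse at 25–30 °C. An emulsifiable formulation, water-diluted to the set dose, was then sprayed onto the foliage, and effects were scored three weeks later using previously defined criteria.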

barnyard grass [2] = experiment: Test Example 5: herbicidal effect by foliage application, plastic box (Table 20, symbol H); type: in vivo, barnyard grass (Echinochloa crus-galli); conditions: foliage application, 320 g/ha, evaluated three weeks after application
Outline: (§3)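 Sow seeds spot-wise in sterilized diluvial soil; cover with ~1.5 cm soil. Grow 14 days in greenhouse, 25° C. to 30° C. Spray foliage with emulsion diluted to predetermined amount. Rate effect after 3 weeks.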

green foxtail [3] = experiment: Test Example 5: herbicidal effect by foliage application, plastic box (Table 20, symbol G); type: in vivo, green foxtail (Setaria viridis); conditions: foliage application, 320 g/ha, evaluated three weeks after application
Outline: as §3

Chinese sprangletop = experiment: Test Example 3: herbicidal effect by foliage application, Wagner pot (Table 18, symbol D); type: in vivo, chinese sprangletop (Leptochloa chinensis); conditions: amount of applied herbicide 320 g/ha
Outline: as §2

Italian ryegrass [4] = experiment: Test Example 4: herbicidal effect by soil treatment (Table 19, symbol K); type: in vivo, Italian ryegrass (Lolium multiflorum); conditions: amount of applied herbicide 320 g/ha
Outline: as §1

lambsquarters [5] = experiment: Test Example 5: herbicidal effect by foliage application, plastic box (Table 20, symbol O); type: in vivo, lambsquarters (Chenopodium album); conditions: foliage application, 320 g/ha, evaluated three weeks after application
Outline: as §3

wild oat [6] = experiment: Test Example 5: herbicidal effect by foliage application, plastic box (Table 20, symbol I); type: in vivo, wild oat (Avena fatua); conditions: foliage application, 320 g/ha, evaluated three weeks after application
Outline: as §3

Japanese bulrush = experiment: Test Example 1: herbicidal activity, application before weed generation under submerged conditions (Table 16, symbol B); type: in vivo, Japanese bulrush (Schoenoplectus juncoides); conditions: 320 g/ha applied herbicide
Outline: (§4)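 Submerged Wagner pots (alluvial soil, 4 cm water) sown with weed seeds and planted with 2.5-leaf rice seedlings; emulsifiable concentrate diluted in water applied to water surface on sowing day. Held in greenhouse at 25-30 °C; injury scored 0-5 by herbicidal rate after three weeks.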

southern crabgrass [7] = experiment: Test Example 5: herbicidal effect by foliage application, plastic box (Table 20, symbol F); type: in vivo, southern crabgrass (Digitaria ciliaris); conditions: foliage application, 320 g/ha, evaluated three weeks after application
Outline: as §3

windgrass [8] = experiment: Test Example 4: herbicidal effect by soil treatment (Table 19, symbol L); type: in vivo, windgrass (Apera spica-venti); conditions: amount of applied herbicide 320 g/ha
Outline: as §1

windgrass [9] = experiment: Test Example 5: herbicidal effect by foliage application, plastic box (Table 20, symbol L); type: in vivo, windgrass (Apera spica-venti); conditions: foliage application, 320 g/ha, evaluated three weeks after application
Outline: as §3

barnyard grass [10] = experiment: Test Example 3: herbicidal effect by foliage application, Wagner pot (Table 18, symbol H); type: in vivo, barnyard grass (Echinochloa crus-galli); conditions: amount of applied herbicide 320 g/ha
Outline: as §2

velvetleaf [11] = experiment: Test Example 5: herbicidal effect by foliage application, plastic box (Table 20, symbol M); type: in vivo, velvetleaf (Abutilon theophrasti); conditions: foliage application, 320 g/ha, evaluated three weeks after application
Outline: as §3

chickweed [12] = experiment: Test Example 5: herbicidal effect by foliage application, plastic box (Table 20, symbol P); type: in vivo, common chickweed (Stellaria media); conditions: foliage application, 320 g/ha, evaluated three weeks after application
Outline: as §3

persian speedwell [13] = experiment: Test Example 5: herbicidal effect by foliage application, plastic box (Table 20, symbol R); type: in vivo, Persian speedwell (Veronica persica); conditions: foliage application, 320 g/ha, evaluated three weeks after application
Outline: as §3

lambsquarters [14] = experiment: Test Example 4: herbicidal effect by soil treatment (Table 19, symbol O); type: in vivo, lambsquarters (Chenopodium album); conditions: amount of applied herbicide 320 g/ha
Outline: as §1

green foxtail [15] = experiment: Test Example 4: herbicidal effect by soil treatment (Table 19, symbol G); type: in vivo, green foxtail (Setaria viridis); conditions: amount of applied herbicide 320 g/ha
Outline: as §1

late watergrass = experiment: Test Example 1: herbicidal activity, application before weed generation under submerged conditions (Table 16, symbol A); type: in vivo, late watergrass (Echinochloa oryzicola); conditions: 320 g/ha applied herbicide
Outline: as §4

blackgrass [16] = experiment: Test Example 4: herbicidal effect by soil treatment (Table 19, symbol J); type: in vivo, blackgrass (Alopecurus myosuroides); conditions: amount of applied herbicide 320 g/ha
Outline: as §1

velvetleaf [17] = experiment: Test Example 4: herbicidal effect by soil treatment (Table 19, symbol M); type: in vivo, velvetleaf (Abutilon theophrasti); conditions: amount of applied herbicide 320 g/ha
Outline: as §1

persian speedwell [18] = experiment: Test Example 4: herbicidal effect by soil treatment (Table 19, symbol R); type: in vivo, Persian speedwell (Veronica persica); conditions: amount of applied herbicide 320 g/ha
Outline: as §1

oval-leafed pondweed = experiment: Test Example 1: herbicidal activity, application before weed generation under submerged conditions (Table 16, symbol C); type: in vivo, oval-leafed pondweed (Monochoria vaginalis); conditions: 320 g/ha applied herbicide
Outline: as §4

southern crabgrass [19] = experiment: Test Example 4: herbicidal effect by soil treatment (Table 19, symbol F); type: in vivo, southern crabgrass (Digitaria ciliaris); conditions: amount of applied herbicide 320 g/ha
Outline: as §1

barnyard grass [20] = experiment: Test Example 4: herbicidal effect by soil treatment (Table 19, symbol H); type: in vivo, barnyard grass (Echinochloa crus-galli); conditions: amount of applied herbicide 320 g/ha
Outline: as §1

wild oat [21] = experiment: Test Example 4: herbicidal effect by soil treatment (Table 19, symbol I); type: in vivo, wild oat (Avena fatua); conditions: amount of applied herbicide 320 g/ha
Outline: as §1

blackgrass [22] = experiment: Test Example 5: herbicidal effect by foliage application, plastic box (Table 20, symbol J); type: in vivo, blackgrass (Alopecurus myosuroides); conditions: foliage application, 320 g/ha, evaluated three weeks after application
Outline: as §3

Italian ryegrass [23] = experiment: Test Example 5: herbicidal effect by foliage application, plastic box (Table 20, symbol K); type: in vivo, Italian ryegrass (Lolium multiflorum); conditions: foliage application, 320 g/ha, evaluated three weeks after application
Outline: as §3

chickweed [24] = experiment: Test Example 4: herbicidal effect by soil treatment (Table 19, symbol P); type: in vivo, common chickweed (Stellaria media); conditions: amount of applied herbicide 320 g/ha
Outline: as §1

redroot pigweed [25] = experiment: Test Example 5: herbicidal effect by foliage application, plastic box (Table 20, symbol N); type: in vivo, redroot pigweed (Amaranthus retroflexus); conditions: foliage application, 320 g/ha, evaluated three weeks after application
Outline: as §3

Row | SMILES | N: redroot pigweed, herbicidal effect rating (redroot pigweed [1]) | herbicidal effect on E: rice flat sedge (rice flat sedge) | herbicidal effect on H: barnyard grass (barnyard grass [2]) | herbicidal effect on G: green foxtail (green foxtail [3]) | herbicidal effect on D: Chinese sprangletop (Chinese sprangletop) | K: Italian ryegrass, herbicidal effect rating (Italian ryegrass [4]) | herbicidal effect on O: lambsquarters (lambsquarters [5]) | herbicidal effect on I: wild oat (wild oat [6]) | Herbicidal effect on B: Japanese bulrush (grade 0-5) (Japanese bulrush) | herbicidal effect on F: southern crabgrass (southern crabgrass [7]) | L: windgrass, herbicidal effect rating (windgrass [8]) | herbicidal effect on L: windgrass (windgrass [9]) | herbicidal effect on H: barnyard grass (barnyard grass [10]) | herbicidal effect on M: velvetleaf (velvetleaf [11]) | herbicidal effect on P: chickweed (chickweed [12]) | herbicidal effect on R: persian speedwell (persian speedwell [13]) | O: lambsquarters, herbicidal effect rating (lambsquarters [14]) | G: green foxtail, herbicidal effect rating (green foxtail [15]) | Herbicidal effect on A: late watergrass (grade 0-5) (late watergrass) | J: blackgrass, herbicidal effect rating (blackgrass [16]) | further results
1 | CCCCOc1ccc(-c2sc3ccc(Cl)cc3c2-c2c(O)c(C)nn(C)c2=O)cc1 [2-109] | 4 (Herbicidal rate of 70% or more and less than 90%) | 2 (Herbicidal rate of 20% or more and less than 40%) | 4 (Herbicidal rate of 70% or more and less than 90%) | 1 (Herbicidal rate of 5% or more and less than 20%) | 2 (Herbicidal rate of 20% or more and less than 40%) | 0 (Herbicidal rate of 5% or less (almost no effect)) | 4 (Herbicidal rate of 70% or more and less than 90%) | 0 (Herbicidal rate of 5% or less (almost no effect)) | 3 (Herbicidal rate of 40% or more and less than 70%) | 0 (Herbicidal rate of 5% or less (almost no effect)) | 0 (Herbicidal rate of 5% or less (almost no effect)) | 0 (Herbicidal rate of 5% or less (almost no effect)) | 4 (Herbicidal rate of 70% or more and less than 90%) | 4 (Herbicidal rate of 70% or more and less than 90%) | 4 (Herbicidal rate of 70% or more and less than 90%) | 5 (Herbicidal rate of 90% or more (almost completely withered)) | 2 (Herbicidal rate of 20% or more and less than 40%) | 0 (Herbicidal rate of 5% or less (almost no effect)) | 0 (Herbicidal rate of 5% or less (almost no effect)) | 0 (Herbicidal rate of 5% or less (almost no effect)) | M: velvetleaf, herbicidal effect rating (velvetleaf [17]): 1 (Herbicidal rate of 5% or more and less than 20%); R: persian speedwell, herbicidal effect rating (persian speedwell [18]): 3 (Herbicidal rate of 40% or more and less than 70%); Herbicidal effect on C: oval-leafed pondweed (grade 0-5) (oval-leafed pondweed): 0 (Herbicidal rate of 5% or less (almost no effect)); F: southern crabgrass, herbicidal effect rating (southern crabgrass [19]): 0 (Herbicidal rate of 5% or less (almost no effect)); H: barnyard grass, herbicidal effect rating (barnyard grass [20]): 0 (Herbicidal rate of 5% or less (almost no effect)); I: wild oat, herbicidal effect rating (wild oat [21]): 0 (Herbicidal rate of 5% or less (almost no effect)); herbicidal effect on J: blackgrass (blackgrass [22]): 0 (Herbicidal rate of 5% or less (almost no effect)); herbicidal effect on K: Italian ryegrass (Italian ryegrass [23]): 0 (Herbicidal rate of 5% or less (almost no effect)); P: chickweed, herbicidal effect rating (chickweed [24]): 0 (Herbicidal rate of 5% or less (almost no effect)); herbicidal effect on N: redroot pigweed (redroot pigweed [25]): 5 (Herbicidal rate of 90% or more (almost completely withered))
2 | COc1ccccc1-c1sc2ccc(I)cc2c1-c1c(O)c(C)nn(C)c1=O [2-130] | 2 (Herbicidal rate of 20% or more and less than 40%) | 4 (Herbicidal rate of 70% or more and less than 90%) | 0 (Herbicidal rate of 5% or less (almost no effect)) | 0 (Herbicidal rate of 5% or less (almost no effect)) | 0 (Herbicidal rate of 5% or less (almost no effect)) | 0 (Herbicidal rate of 5% or less (almost no effect)) | 2 (Herbicidal rate of 20% or more and less than 40%) | 0 (Herbicidal rate of 5% or less (almost no effect)) | 3 (Herbicidal rate of 40% or more and less than 70%) | 0 (Herbicidal rate of 5% or less (almost no effect)) | 0 (Herbicidal rate of 5% or less (almost no effect)) | 0 (Herbicidal rate of 5% or less (almost no effect)) | 3 (Herbicidal rate of 40% or more and less than 70%) | 3 (Herbicidal rate of 40% or more and less than 70%) | 5 (Herbicidal rate of 90% or more (almost completely withered)) | 3 (Herbicidal rate of 40% or more and less than 70%) | 3 (Herbicidal rate of 40% or more and less than 70%) | 0 (Herbicidal rate of 5% or less (almost no effect)) | 0 (Herbicidal rate of 5% or less (almost no effect)) | 0 (Herbicidal rate of 5% or less (almost no effect)) | M: velvetleaf, herbicidal effect rating (velvetleaf [17]): 0 (Herbicidal rate of 5% or less (almost no effect)); R: persian speedwell, herbicidal effect rating (persian speedwell [18]): 0 (Herbicidal rate of 5% or less (almost no effect)); Herbicidal effect on C: oval-leafed pondweed (grade 0-5) (oval-leafed pondweed): 0 (Herbicidal rate of 5% or less (almost no effect)); F: southern crabgrass, herbicidal effect rating (southern crabgrass [19]): 0 (Herbicidal rate of 5% or less (almost no effect)); H: barnyard grass, herbicidal effect rating (barnyard grass [20]): 0 (Herbicidal rate of 5% or less (almost no effect)); I: wild oat, herbicidal effect rating (wild oat [21]): 0 (Herbicidal rate of 5% or less (almost no effect)); herbicidal effect on J: blackgrass (blackgrass [22]): 0 (Herbicidal rate of 5% or less (almost no effect)); herbicidal effect on K: Italian ryegrass (Italian ryegrass [23]): 0 (Herbicidal rate of 5% or less (almost no effect)); P: chickweed, herbicidal effect rating (chickweed [24]): 0 (Herbicidal rate of 5% or less (almost no effect)); herbicidal effect on N: redroot pigweed (redroot pigweed [25]): 5 (Herbicidal rate of 90% or more (almost completely withered))
